Assay results: BindingDB's records for doi:10.1021/acs.jmedchem.8b01908 (Chinese Academy of Sciences, 2019)
Positions of bridges follow the written chain, without caps; N, C: chain ends. Residues, ends and D or L forms follow the SMILES beside them.

Assay: Inhibition of the intrinsic peri-cellular uPA in mouse CT26 cells assessed as reduction in cell invasion measured every hour by transwell assay

IC50 [µM]	SMILES
5.02	CC[C@H](C)[C@@H]1NC(=O)[C@H](Cc2ccc(O)cc2)NC(=O)[C@H](CCCNC(=N)N)NC(=O)[C@H](CO)NC(=O)[C@H](Cc2ccc(O)cc2)NC(=O)[C@H](C)NC(=O)[C@@H]2CCCN2C(=O)[C@@H](NC(C)=O)CSSC[C@@H](C(N)=O)NC(=O)CNC1=O (Ac-CPAYSRYIGC-NH2; disulfide 1-10)
3.28	CC[C@H](C)[C@@H]1NC(=O)[C@H](Cc2ccc(O)cc2)NC(=O)[C@H](CCCNC(=N)N)NC(=O)[C@H](CO)NC(=O)[C@H](Cc2ccc(O)cc2)NC(=O)[C@H](C)NC(=O)[C@@H]2CCCN2C(=O)[C@@H](N)CSSC[C@@H](C(=O)O)NC(=O)CNC1=O (H-CPAYSRYIGC-OH; disulfide 1-10)

SMILES	IC50 [µM]
CC(=O)N[C@H]1CSSC[C@@H](C(N)=O)NC(=O)[C@H](CC(=O)O)NC(=O)[C@H](CC(C)C)NC(=O)[C@H](Cc2ccc(O)cc2)NC(=O)[C@H](CCCNC(=N)N)NC(=O)[C@H](CO)NC(=O)[C@H](Cc2ccc(O)cc2)NC(=O)[C@H](C)NC(=O)[C@@H]2CCCN2C1=O (Ac-CPAYSRYLDC-NH2; disulfide 1-10)	39.4
